Laboratory results: US20240393292A1, “ALLERGY ANTIGEN AND EPITOPE THEREOF” (HOYU CO., LTD., priority 2019, published 2024)

Test system: IgE antibodies from patients
Test: Wheat epitope mapping (2): overlapping 10-amino-acid peptide fragments shifted by one amino acid;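 further: key of grades: preferably = shorter partial sequence still acting as epitope; more preferably = sequence improving IgE binding; key = particularly important sequence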
Assay type: binding, human
Outline: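 Residual binding was banded as <30% none, 30–<50% poor, 50–<70% somewhat poor and ≥70% retained, relative to the parent overlapping sequence set to 100%. Values were chemiluminescent IgE signals from patient sera after subtracting secondary-antibody-only controls. The peptides were spot-synthesised 10-mers shifted by one amino acid.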

[1] = serum of patient G9 (adult, general immediate type allergy to wheat)

In the case of “1891 (YTVRTL; REGION 1..6: note = epitope) [compound 1891]”, the “epitope sequence binding to IgE antibody, rank (Key/Preferably/More preferably)” value (serum of patient G7 (adult, general immediate type allergy to wheat)) is reported as “Key”.
For “1893 (YTVRTLQRT; REGION 1..9: note = epitope) [compound 1893]”, the “epitope sequence binding to IgE antibody, rank (Key/Preferably/More preferably)” value [1] was “Preferably”.
In the case of “1894 (VRTLQ; REGION 1..5: note = epitope) [compound 1894]”, the “epitope sequence binding to IgE antibody, rank (Key/Preferably/More preferably)” value [1] is reported as “Key”.
For “1896 (VPLVQQQ; REGION 1..7: note = epitope) [compound 1896]”, the “epitope sequence binding to IgE antibody, rank (Key/Preferably/More preferably)” value (serum of patient P2 (WDEIA)) was “Preferably”.
“1897 (VPLVQQ; REGION 1..6: note = epitope) [compound 1897]” was tested, and the “epitope sequence binding to IgE antibody, rank (Key/Preferably/More preferably)” value (serum of patient P2 (WDEIA)) was “Key”.
With “1898 (QQFPGQQQ; REGION 1..8: note = epitope) [compound 1898]” the “epitope sequence binding to IgE antibody, rank (Key/Preferably/More preferably)” value (serum of patient P2 (WDEIA)) was “Key”.
“1900 (QVPLVQQ; REGION 1..7: note = epitope) [compound 1900]” was tested, and the “epitope sequence binding to IgE antibody, rank (Key/Preferably/More preferably)” value (serum of patient P3 (WDEIA)) was “Preferably”.
“1901 (VPLVQ; REGION 1..5: note = epitope) [compound 1901]” was tested, and the “epitope sequence binding to IgE antibody, rank (Key/Preferably/More preferably)” value (serum of patient P3 (WDEIA)) was “Key”.
For “1902 (QQFPGQQ; REGION 1..7: note = epitope) [compound 1902]”, the “epitope sequence binding to IgE antibody, rank (Key/Preferably/More preferably)” value (serum of patient P3 (WDEIA)) was “Key”.
“1904 (QVPLVQQ; REGION 1..7: note = epitope) [compound 1904]” was tested, and the “epitope sequence binding to IgE antibody, rank (Key/Preferably/More preferably)” value (serum of patient P4 (WDEIA)) was “Preferably”.
For “1905 (VPLVQ; REGION 1..5: note = epitope) [compound 1905]”, the “epitope sequence binding to IgE antibody, rank (Key/Preferably/More preferably)” value (serum of patient P4 (WDEIA)) was “Key”.
With “1906 (QFPGQQQ; REGION 1..7: note = epitope) [compound 1906]” the “epitope sequence binding to IgE antibody, rank (Key/Preferably/More preferably)” value (serum of patient P4 (WDEIA)) was “Key”.
For “1908 (QVPLVQQ; REGION 1..7: note = epitope) [compound 1908]”, the “epitope sequence binding to IgE antibody, rank (Key/Preferably/More preferably)” value (serum of patient P7 (WDEIA)) was “Preferably”.
“1909 (VPLVQ; REGION 1..5: note = epitope) [compound 1909]” was tested, and the “epitope sequence binding to IgE antibody, rank (Key/Preferably/More preferably)” value (serum of patient P7 (WDEIA)) was “Key”.
“1910 (QFPGQQQ; REGION 1..7: note = epitope) [compound 1910]” was tested, and the “epitope sequence binding to IgE antibody, rank (Key/Preferably/More preferably)” value (serum of patient P7 (WDEIA)) was “Key”.
“1912 (QVPLVQQQ; REGION 1..8: note = epitope) [compound 1912]” was tested, and the “epitope sequence binding to IgE antibody, rank (Key/Preferably/More preferably)” value (serum of patient P8 (WDEIA)) was “Preferably”.
For “1913 (QVPLVQQ; REGION 1..7: note = epitope) [compound 1913]”, the “epitope sequence binding to IgE antibody, rank (Key/Preferably/More preferably)” value (serum of patient P8 (WDEIA)) was “Key”.
With “1914 (QQFPGQQ; REGION 1..7: note = epitope) [compound 1914]” the “epitope sequence binding to IgE antibody, rank (Key/Preferably/More preferably)” value (serum of patient P8 (WDEIA)) was “Key”.
For “1915 (QVPLVQQQQ; REGION 1..9: note = epitope) [compound 1915]”, the “epitope sequence binding to IgE antibody, rank (Key/Preferably/More preferably)” value (serum of patient P9 (WDEIA)) was “Key”.
With “1916 (QQQQFPGQQQ; REGION 1..10: note = epitope) [compound 1916]” the “epitope sequence binding to IgE antibody, rank (Key/Preferably/More preferably)” value (serum of patient P9 (WDEIA)) was “Key”.
For “1918 (QVPLVQQQQ; REGION 1..9: note = epitope) [compound 1918]”, the “epitope sequence binding to IgE antibody, rank (Key/Preferably/More preferably)” value (serum of patient P10 (WDEIA)) was “Preferably”.
“1919 (VPLVQQQ; REGION 1..7: note = epitope) [compound 1919]” was tested, and the “epitope sequence binding to IgE antibody, rank (Key/Preferably/More preferably)” value (serum of patient P10 (WDEIA)) was “Key”.
“1920 (LVQQQQFPGQ; REGION 1..10: note = epitope) [compound 1920]” was tested, and the “epitope sequence binding to IgE antibody, rank (Key/Preferably/More preferably)” value (serum of patient P10 (WDEIA)) was “Key”.
In the case of “1921 (QVPLVQQQ; REGION 1..8: note = epitope) [compound 1921]”, the “epitope sequence binding to IgE antibody, rank (Key/Preferably/More preferably)” value (serum of patient P12 (WDEIA)) is reported as “Preferably”.
For “1922 (QVPLVQQ; REGION 1..7: note = epitope) [compound 1922]”, the “epitope sequence binding to IgE antibody, rank (Key/Preferably/More preferably)” value (serum of patient P12 (WDEIA)) was “Key”.
For “1923 (QQFPGQQQ; REGION 1..8: note = epitope) [compound 1923]”, the “epitope sequence binding to IgE antibody, rank (Key/Preferably/More preferably)” value (serum of patient P12 (WDEIA)) was “Preferably”.
“1924 (FPGQQ; REGION 1..5: note = epitope) [compound 1924]” was tested, and the “epitope sequence binding to IgE antibody, rank (Key/Preferably/More preferably)” value (serum of patient P12 (WDEIA)) was “Key”.
“1925 (QFPGQQ; REGION 1..6: note = epitope) [compound 1925]” was tested, and the “epitope sequence binding to IgE antibody, rank (Key/Preferably/More preferably)” value (serum of patient P13 (WDEIA)) was “Key”.
For “1926 (QQQFPGQQQ; REGION 1..9: note = epitope) [compound 1926]”, the “epitope sequence binding to IgE antibody, rank (Key/Preferably/More preferably)” value (serum of patient P14 (WDEIA)) was “Preferably”.
In the case of “1927 (QFPGQQ; REGION 1..6: note = epitope) [compound 1927]”, the “epitope sequence binding to IgE antibody, rank (Key/Preferably/More preferably)” value (serum of patient P14 (WDEIA)) is reported as “Key”.
For “1928 (VPLVQQQ; REGION 1..7: note = epitope) [compound 1928]”, the “epitope sequence binding to IgE antibody, rank (Key/Preferably/More preferably)” value (serum of patient P15 (WDEIA)) was “Key”.
For “1929 (QFPGQQQ; REGION 1..7: note = epitope) [compound 1929]”, the “epitope sequence binding to IgE antibody, rank (Key/Preferably/More preferably)” value (serum of patient P15 (WDEIA)) was “Preferably”.
For “1930 (FPGQQQ; REGION 1..6: note = epitope) [compound 1930]”, the “epitope sequence binding to IgE antibody, rank (Key/Preferably/More preferably)” value (serum of patient P15 (WDEIA)) was “Key”.
With “1932 (QVPLVQQQ; REGION 1..8: note = epitope) [compound 1932]” the “epitope sequence binding to IgE antibody, rank (Key/Preferably/More preferably)” value (serum of patient P17 (WDEIA)) was “Preferably”.
In the case of “1933 (VPLVQQ; REGION 1..6: note = epitope) [compound 1933]”, the “epitope sequence binding to IgE antibody, rank (Key/Preferably/More preferably)” value (serum of patient P17 (WDEIA)) is reported as “Key”.
In the case of “1936 (QVPLVQQ; REGION 1..7: note = epitope) [compound 1936]”, the “epitope sequence binding to IgE antibody, rank (Key/Preferably/More preferably)” value (serum of patient P19 (WDEIA)) is reported as “Key”.
In the case of “1937 (QQFPGQQQ; REGION 1..8: note = epitope) [compound 1937]”, the “epitope sequence binding to IgE antibody, rank (Key/Preferably/More preferably)” value (serum of patient P19 (WDEIA)) is reported as “Preferably”.
“1938 (QFPGQQ; REGION 1..6: note = epitope) [compound 1938]” was tested, and the “epitope sequence binding to IgE antibody, rank (Key/Preferably/More preferably)” value (serum of patient P19 (WDEIA)) was “Key”.
In the case of “1939 (QVPLVQQ; REGION 1..7: note = epitope) [compound 1939]”, the “epitope sequence binding to IgE antibody, rank (Key/Preferably/More preferably)” value (serum of patient P21 (WDEIA)) is reported as “Preferably”.
For “1940 (VPLVQ; REGION 1..5: note = epitope) [compound 1940]”, the “epitope sequence binding to IgE antibody, rank (Key/Preferably/More preferably)” value (serum of patient P21 (WDEIA)) was “Key”.
In the case of “1941 (QQFPGQQQ; REGION 1..8: note = epitope) [compound 1941]”, the “epitope sequence binding to IgE antibody, rank (Key/Preferably/More preferably)” value (serum of patient P21 (WDEIA)) is reported as “More preferably”.
With “1942 (QQFPGQQ; REGION 1..7: note = epitope) [compound 1942]” the “epitope sequence binding to IgE antibody, rank (Key/Preferably/More preferably)” value (serum of patient P21 (WDEIA)) was “Preferably”.
For “1943 (QFPGQQ; REGION 1..6: note = epitope) [compound 1943]”, the “epitope sequence binding to IgE antibody, rank (Key/Preferably/More preferably)” value (serum of patient P21 (WDEIA)) was “Key”.
For “1944 (QFPGQQQ; REGION 1..7: note = epitope) [compound 1944]”, the “epitope sequence binding to IgE antibody, rank (Key/Preferably/More preferably)” value (serum of patient P22 (WDEIA)) was “More preferably”.
In the case of “1945 (FPGQQ; REGION 1..5: note = epitope) [compound 1945]”, the “epitope sequence binding to IgE antibody, rank (Key/Preferably/More preferably)” value (serum of patient P22 (WDEIA)) is reported as “Preferably”.
In the case of “1946 (FPGQ; REGION 1..4: note = epitope) [compound 1946]”, the “epitope sequence binding to IgE antibody, rank (Key/Preferably/More preferably)” value (serum of patient P22 (WDEIA)) is reported as “Key”.
“1948 (QVPLVQQQ; REGION 1..8: note = epitope) [compound 1948]” was tested, and the “epitope sequence binding to IgE antibody, rank (Key/Preferably/More preferably)” value (serum of patient P24 (WDEIA)) was “Preferably”.
With “1949 (VPLVQQ; REGION 1..6: note = epitope) [compound 1949]” the “epitope sequence binding to IgE antibody, rank (Key/Preferably/More preferably)” value (serum of patient P24 (WDEIA)) was “Key”.
For “1950 (QQQFPGQQQ; REGION 1..9: note = epitope) [compound 1950]”, the “epitope sequence binding to IgE antibody, rank (Key/Preferably/More preferably)” value (serum of patient P24 (WDEIA)) was “More preferably”.
